pEC50, pIC50: −log10 of the molar value. Positions of bridges follow the written chain, without caps; N, C: chain ends. Residues, ends and D or L forms follow the SMILES beside them.
Key:
[1] = molecular target: T1, Glucagon-like peptide 1 receptor (Homo sapiens, UniProt P43220); test: Activation of human GLP1R expressed in HEK293 cells assessed as effect on cAMP responsive element promoter driven luciferase expression; assay type: functional, cell-based
[2] = molecular target: T1, Glucagon-like peptide 1 receptor; test: Displacement of [125I]exendin(9-39) from human GLP1R expressed in HEK293 cells; assay type: cell-based

T1 sequence (P43220 whole entry): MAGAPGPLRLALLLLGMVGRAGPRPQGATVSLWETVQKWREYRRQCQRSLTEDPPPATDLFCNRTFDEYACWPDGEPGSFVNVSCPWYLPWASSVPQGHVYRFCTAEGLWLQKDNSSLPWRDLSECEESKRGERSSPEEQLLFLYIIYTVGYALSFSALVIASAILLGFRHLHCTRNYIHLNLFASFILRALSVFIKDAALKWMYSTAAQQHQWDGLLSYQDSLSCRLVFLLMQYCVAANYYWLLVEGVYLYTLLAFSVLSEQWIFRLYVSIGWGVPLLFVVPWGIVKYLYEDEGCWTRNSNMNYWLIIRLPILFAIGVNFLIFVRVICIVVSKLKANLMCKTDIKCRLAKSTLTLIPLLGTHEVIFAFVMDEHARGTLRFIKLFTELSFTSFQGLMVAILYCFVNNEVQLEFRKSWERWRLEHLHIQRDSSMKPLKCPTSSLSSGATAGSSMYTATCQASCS

| Structure (SMILES) | pEC50 [1] | pIC50 [2] | pEC50 ([1]; hek293) | pIC50 ([2]; hek293) |
| --- | --- | --- | --- | --- |
| CC[C@H](C)[C@H](NC(=O)[C@H](CCC(=O)O)NC(=O)[C@H](CCCCN)NC(=O)[C@H](C)NC(=O)[C@H](C)NC(=O)[C@H](CCC(N)=O)NC(=O)CNC(=O)[C@H](CCC(=O)O)NC(=O)[C@H](CC(C)C)NC(=O)[C@H](Cc1ccc(O)cc1)NC(=O)[C@H](CO)NC(=O)[C@H](CO)NC(=O)[C@@H](NC(=O)[C@H](CCC(N)=O)NC(=O)[C@H](CO)NC(=O)[C@@H](NC(=O)[C@H](Cc1ccccc1)NC(=O)[C@H](CCCCNC(C)=O)NC(=O)CNC(=O)[C@H](CCC(=O)O)NC(=O)[C@H](C)NC(=O)[C@@H](N)Cc1cnc[nH]1)[C@@H](C)O)C(C)C)C(=O)N[C@@H](Cc1ccccc1)C(=O)N[C@@H](C)C(=O)N[C@@H](Cc1c[nH]c2ccccc12)C(=O)N[C@@H](CC(C)C)C(=O)N[C@H](C(=O)N[C@@H](CCCCN)C(=O)NCC(=O)N[C@@H](CCCN=C(N)N)C(N)=O)C(C)C (H-HAEGK(Ac)FTSQVSSYLEGQAAKEIFAWLVKGR-NH2) | 7.62 | 6.36 |  |  |
| CC[C@H](C)[C@H](NC(=O)[C@H](Cc1ccccc1)NC(=O)[C@H](CCC(=O)O)NC(=O)[C@H](CCCCN)NC(=O)[C@H](C)NC(=O)[C@H](C)NC(=O)[C@H](CCC(N)=O)NC(=O)CNC(=O)[C@H](CCC(=O)O)NC(=O)[C@H](CC(C)C)NC(=O)[C@H](Cc1ccc(O)cc1)NC(=O)[C@H](CO)NC(=O)[C@H](CO)NC(=O)[C@@H](NC(=O)[C@@H]1CCC(=O)NCCCC[C@H](NC(=O)CNC(=O)[C@H](CCC(=O)O)NC(=O)[C@H](C)NC(=O)[C@@H](N)Cc2cnc[nH]2)C(=O)N[C@@H](Cc2ccccc2)C(=O)N[C@@H]([C@@H](C)O)C(=O)N[C@@H](CO)C(=O)N1)C(C)C)C(=O)N[C@@H](C)C(=O)N[C@@H](Cc1c[nH]c2ccccc12)C(=O)N[C@@H](CC(C)C)C(=O)N[C@H](C(=O)N[C@@H](CCCCN)C(=O)NCC(=O)N[C@@H](CCCNC(=N)N)C(N)=O)C(C)C (H-HAEGKFTSEVSSYLEGQAAKEFIAWLVKGR-NH2; lactam 5-9) |  |  | 9.42 | 6.96 |
| CC[C@H](C)[C@H](NC(=O)[C@H](Cc1ccccc1)NC(=O)[C@H](CCC(=O)O)NC(=O)[C@H](CCCCN)NC(=O)[C@H](C)NC(=O)[C@H](C)NC(=O)[C@H](CCC(N)=O)NC(=O)CNC(=O)[C@H](CCC(=O)O)NC(=O)[C@@H]1CCC(=O)NCCCC[C@H](NC(=O)[C@H](CC(=O)O)NC(=O)[C@H](CO)NC(=O)[C@@H](NC(=O)[C@H](Cc2ccccc2)NC(=O)[C@@H](NC(=O)CNC(=O)[C@H](CCC(=O)O)NC(=O)[C@H](C)NC(=O)[C@@H](N)Cc2cnc[nH]2)[C@@H](C)O)[C@@H](C)O)C(=O)N[C@@H](CO)C(=O)N[C@@H](CO)C(=O)N[C@@H](Cc2ccc(O)cc2)C(=O)N1)C(=O)N[C@@H](C)C(=O)N[C@@H](Cc1c[nH]c2ccccc12)C(=O)N[C@@H](CC(C)C)C(=O)N[C@H](C(=O)N[C@@H](CCCCN)C(=O)NCC(=O)N[C@@H](CCCNC(=N)N)C(N)=O)C(C)C (H-HAEGTFTSDKSSYEEGQAAKEFIAWLVKGR-NH2; lactam 10-14) | 11.12 | 8.35 |  |  |
| CC[C@H](C)[C@H](NC(=O)[C@H](Cc1ccccc1)NC(=O)[C@H](CCC(=O)O)NC(=O)[C@H](CCCCN)NC(=O)[C@H](C)NC(=O)[C@H](C)NC(=O)[C@H](CCC(N)=O)NC(=O)[C@@H]1CCC(=O)NCCCC[C@H](NC(=O)[C@H](CO)NC(=O)[C@@H](NC(=O)[C@H](CC(=O)O)NC(=O)[C@H](CO)NC(=O)[C@@H](NC(=O)[C@H](Cc2ccccc2)NC(=O)[C@@H](NC(=O)CNC(=O)[C@H](CCC(=O)O)NC(=O)[C@H](C)NC(=O)[C@@H](N)Cc2cnc[nH]2)[C@@H](C)O)[C@@H](C)O)C(C)C)C(=O)N[C@@H](Cc2ccc(O)cc2)C(=O)N[C@@H](CC(C)C)C(=O)N[C@@H](CCC(=O)O)C(=O)N1)C(=O)N[C@@H](C)C(=O)N[C@@H](Cc1c[nH]c2ccccc12)C(=O)N[C@@H](CC(C)C)C(=O)N[C@H](C(=O)N[C@@H](CCCCN)C(=O)NCC(=O)N[C@@H](CCCN=C(N)N)C(N)=O)C(C)C (H-HAEGTFTSDVSKYLEEQAAKEFIAWLVKGR-NH2; lactam 12-16) | 11.70 | 7.82 |  |  |
| CC[C@H](C)[C@H](NC(=O)[C@H](CCC(=O)O)NC(=O)[C@H](CCCCN)NC(=O)[C@H](C)NC(=O)[C@H](C)NC(=O)[C@H](CCC(N)=O)NC(=O)CNC(=O)[C@H](CCC(=O)O)NC(=O)[C@H](CC(C)C)NC(=O)[C@H](Cc1ccc(O)cc1)NC(=O)[C@H](CCC(N)=O)NC(=O)[C@H](CO)NC(=O)[C@@H](NC(=O)[C@H](CC(=O)O)NC(=O)[C@H](CCCCNC(C)=O)NC(=O)[C@@H](NC(=O)[C@H](Cc1ccccc1)NC(=O)[C@@H](NC(=O)CNC(=O)[C@H](CCC(=O)O)NC(=O)[C@H](C)NC(=O)[C@@H](N)Cc1cnc[nH]1)[C@@H](C)O)[C@@H](C)O)C(C)C)C(=O)N[C@@H](Cc1ccccc1)C(=O)N[C@@H](C)C(=O)N[C@@H](Cc1c[nH]c2ccccc12)C(=O)N[C@@H](CC(C)C)C(=O)N[C@H](C(=O)N[C@@H](CCCCN)C(=O)NCC(=O)N[C@@H](CCCN=C(N)N)C(N)=O)C(C)C (H-HAEGTFTK(Ac)DVSQYLEGQAAKEIFAWLVKGR-NH2) | 7.80 | 6.64 |  |  |
| CC[C@H](C)[C@H](NC(=O)[C@H](Cc1ccccc1)NC(=O)[C@H](CCC(=O)O)NC(=O)[C@H](CCCCN)NC(=O)[C@H](C)NC(=O)[C@@H]1CCC(=O)NCCCC[C@H](NC(=O)[C@H](Cc2ccc(O)cc2)NC(=O)[C@H](CO)NC(=O)[C@H](CO)NC(=O)[C@@H](NC(=O)[C@H](CC(=O)O)NC(=O)[C@H](CO)NC(=O)[C@@H](NC(=O)[C@H](Cc2ccccc2)NC(=O)[C@@H](NC(=O)CNC(=O)[C@H](CCC(=O)O)NC(=O)[C@H](C)NC(=O)[C@@H](N)Cc2cnc[nH]2)[C@@H](C)O)[C@@H](C)O)C(C)C)C(=O)N[C@@H](CCC(=O)O)C(=O)NCC(=O)N[C@@H](CCC(N)=O)C(=O)N1)C(=O)N[C@@H](C)C(=O)N[C@@H](Cc1c[nH]c2ccccc12)C(=O)N[C@@H](CC(C)C)C(=O)N[C@H](C(=O)N[C@@H](CCCCN)C(=O)NCC(=O)N[C@@H](CCCNC(=N)N)C(N)=O)C(C)C (H-HAEGTFTSDVSSYKEGQEAKEFIAWLVKGR-NH2; lactam 14-18) |  |  | 9.44 | 5.52 |

Reference: ChEMBL document CHEMBL1151687, “Search for alpha-helical propensity in the receptor-bound conformation of glucagon-like peptide-1” (Bioorg Med Chem, 2008)
